In paper PMC6886798, “Expression of myeloid Src-family kinases is associated with poor prognosis in AML and influences Flt3-ITD kinase inhibitor acquired resistance” (PLoS ONE, 2019):

Key:
Assay in all cases: KINOMEscan
Assay type in all cases: binding
Details in all cases: 1.0 µM
[1] = biological target: T1, ABL1(M351T)-phosphorylated (Homo sapiens, UniProt P00519, M351T)
T1 construct: purchased Eurofins/DiscoverX KINOMEscan scanMAX
Experimental: (§1) Kinase retention to the immobilized ligand is then measured using quantitative real-time PCR for each kinase-specific DNA barcode.

[2] = biological target: T2, CAMK1B (Homo sapiens, UniProt Q6P2M8)
T2 construct: purchased Eurofins/DiscoverX KINOMEscan scanMAX
Experimental: as §1

[3] = biological target: T3, WNK4 (Homo sapiens, UniProt Q96J92)
T3 construct: DNA tag (qPCR barcode); purchased Eurofins/DiscoverX KINOMEscan scanMAX
Experimental: as §1

[4] = biological target: T4, MEK5 (Homo sapiens, UniProt Q13163)
T4 construct: purchased Eurofins/DiscoverX KINOMEscan scanMAX
Experimental: as §1

[5] = biological target: T5, p38-alpha (Homo sapiens, UniProt Q16539)
T5 construct: purchased Eurofins/DiscoverX KINOMEscan scanMAX
Experimental: as §1

[6] = biological target: T6, BRK (Homo sapiens, UniProt Q13882)
T6 construct: purchased Eurofins/DiscoverX KINOMEscan scanMAX
Experimental: as §1

[7] = biological target: T7, TNIK (Homo sapiens, UniProt Q9UKE5)
T7 construct: purchased Eurofins/DiscoverX KINOMEscan scanMAX
Experimental: as §1

[8] = biological target: T8, FER (Homo sapiens, UniProt P16591)
T8 construct: purchased Eurofins/DiscoverX KINOMEscan scanMAX
Experimental: as §1

[9] = biological target: T9, PAK7 (Homo sapiens, UniProt Q9P286)
T9 construct: purchased Eurofins/DiscoverX KINOMEscan scanMAX
Experimental: as §1

[10] = biological target: T10, RET(V804M) (Homo sapiens, UniProt P07949, V804M)
T10 construct: purchased Eurofins/DiscoverX KINOMEscan scanMAX
Experimental: as §1

[11] = biological target: T11, FGFR3(G697C) (Homo sapiens, UniProt P22607, G697C)
T11 construct: purchased Eurofins/DiscoverX KINOMEscan scanMAX
Experimental: as §1

[12] = biological target: T12, TEC (Homo sapiens, UniProt P42680)
T12 construct: purchased Eurofins/DiscoverX KINOMEscan scanMAX
Experimental: as §1

[13] = biological target: T13, PRKCE (Homo sapiens, UniProt Q02156)
T13 construct: purchased Eurofins/DiscoverX KINOMEscan scanMAX
Experimental: as §1

[14] = biological target: T14, JAK3(JH1domain-catalytic) (Homo sapiens, UniProt P52333)
T14 construct: JAK3(JH1domain-catalytic); purchased Eurofins/DiscoverX KINOMEscan scanMAX
Experimental: as §1

[15] = biological target: T15, PAK3 (Homo sapiens, UniProt O75914)
T15 construct: purchased Eurofins/DiscoverX KINOMEscan scanMAX
Experimental: as §1

[16] = biological target: T16, RSK4(Kin.Dom.2-C-terminal) (Homo sapiens, UniProt Q9UK32)
T16 construct: RSK4(Kin.Dom.2-C-terminal); purchased Eurofins/DiscoverX KINOMEscan scanMAX
Experimental: as §1

[17] = biological target: T17, PIK3CA(I800L) (Homo sapiens, UniProt P42336, I800L)
T17 construct: purchased Eurofins/DiscoverX KINOMEscan scanMAX
Experimental: as §1

[18] = biological target: T18, LRRK2 (Homo sapiens, UniProt Q5S007)
T18 construct: purchased Eurofins/DiscoverX KINOMEscan scanMAX
Experimental: as §1

[19] = biological target: T19, ADCK4 (Homo sapiens, UniProt Q96D53)
T19 construct: purchased Eurofins/DiscoverX KINOMEscan scanMAX
Experimental: as §1

[20] = biological target: T20, PRKCI (Homo sapiens, UniProt P41743)
T20 construct: purchased Eurofins/DiscoverX KINOMEscan scanMAX
Experimental: as §1

[21] = biological target: T21, SGK2 (Homo sapiens, UniProt Q9HBY8)
T21 construct: purchased Eurofins/DiscoverX KINOMEscan scanMAX
Experimental: as §1

[22] = biological target: T22, ABL1(T315I)-nonphosphorylated (Homo sapiens, UniProt P00519, T315I)
T22 construct: purchased Eurofins/DiscoverX KINOMEscan scanMAX
Experimental: as §1

[23] = biological target: T23, FLT3 (Homo sapiens, UniProt P36888)
T23 construct: purchased Eurofins/DiscoverX KINOMEscan scanMAX
Experimental: as §1

[24] = biological target: T24, CAMK2D (Homo sapiens, UniProt Q13557)
T24 construct: purchased Eurofins/DiscoverX KINOMEscan scanMAX
Experimental: as §1

[25] = biological target: T25, CSNK2A1 (Homo sapiens, UniProt P68400)
T25 construct: purchased Eurofins/DiscoverX KINOMEscan scanMAX
Experimental: as §1

[26] = biological target: T26, NEK5 (Homo sapiens, UniProt Q6P3R8)
T26 construct: purchased Eurofins/DiscoverX KINOMEscan scanMAX
Experimental: as §1

[27] = biological target: T27, PKAC-alpha (Homo sapiens, UniProt P17612)
T27 construct: purchased Eurofins/DiscoverX KINOMEscan scanMAX
Experimental: as §1

[28] = biological target: T28, LATS1 (Homo sapiens, UniProt O95835)
T28 construct: purchased Eurofins/DiscoverX KINOMEscan scanMAX
Experimental: as §1

[29] = biological target: T29, CAMK2A (Homo sapiens, UniProt Q9UQM7)
T29 construct: purchased Eurofins/DiscoverX KINOMEscan scanMAX
Experimental: as §1

[30] = biological target: T30, ACVRL1 (Homo sapiens, UniProt P37023)
T30 construct: purchased Eurofins/DiscoverX KINOMEscan scanMAX
Experimental: as §1

[31] = biological target: T31, EPHA4 (Homo sapiens, UniProt P54764)
T31 construct: purchased Eurofins/DiscoverX KINOMEscan scanMAX
Experimental: as §1

[32] = biological target: T32, CSNK1E (Homo sapiens, UniProt P49674)
T32 construct: purchased Eurofins/DiscoverX KINOMEscan scanMAX
Experimental: as §1

[33] = biological target: T33, HIPK4 (Homo sapiens, UniProt Q8NE63)
T33 construct: purchased Eurofins/DiscoverX KINOMEscan scanMAX
Experimental: as §1

[34] = biological target: T34, TSSK1B (Homo sapiens, UniProt Q9BXA7)
T34 construct: DNA tag (qPCR barcode); purchased Eurofins/DiscoverX KINOMEscan scanMAX
Experimental: as §1

[35] = biological target: T35, RSK1(Kin.Dom.1-N-terminal) (Homo sapiens, UniProt Q15418)
T35 construct: RSK1(Kin.Dom.1-N-terminal); purchased Eurofins/DiscoverX KINOMEscan scanMAX
Experimental: as §1

[36] = biological target: T36, EPHA6 (Homo sapiens, UniProt Q9UF33)
T36 construct: purchased Eurofins/DiscoverX KINOMEscan scanMAX
Experimental: as §1

[37] = biological target: T37, KIT(D816V) (Homo sapiens, UniProt P10721, D816V)
T37 construct: purchased Eurofins/DiscoverX KINOMEscan scanMAX
Experimental: as §1

[38] = biological target: T38, CHEK1 (Homo sapiens, UniProt O14757)
T38 construct: purchased Eurofins/DiscoverX KINOMEscan scanMAX
Experimental: as §1

[39] = biological target: T39, STK36 (Homo sapiens, UniProt Q9NRP7)
T39 construct: purchased Eurofins/DiscoverX KINOMEscan scanMAX
Experimental: as §1

[40] = biological target: T40, CSNK1G3 (Homo sapiens, UniProt Q9Y6M4)
T40 construct: purchased Eurofins/DiscoverX KINOMEscan scanMAX
Experimental: as §1

T6 sequence (Q13882 whole entry): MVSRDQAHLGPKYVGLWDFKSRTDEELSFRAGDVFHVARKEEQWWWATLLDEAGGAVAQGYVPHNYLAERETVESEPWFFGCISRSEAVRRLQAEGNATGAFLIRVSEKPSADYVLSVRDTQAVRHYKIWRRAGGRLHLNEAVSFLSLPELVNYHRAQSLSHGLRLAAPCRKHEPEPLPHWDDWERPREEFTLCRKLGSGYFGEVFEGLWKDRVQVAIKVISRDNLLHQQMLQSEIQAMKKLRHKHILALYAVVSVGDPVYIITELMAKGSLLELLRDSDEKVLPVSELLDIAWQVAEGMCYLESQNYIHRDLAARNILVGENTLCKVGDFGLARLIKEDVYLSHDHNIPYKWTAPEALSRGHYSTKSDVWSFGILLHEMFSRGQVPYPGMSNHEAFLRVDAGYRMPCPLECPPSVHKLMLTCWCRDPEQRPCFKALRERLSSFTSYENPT
T12 sequence (P42680 whole entry): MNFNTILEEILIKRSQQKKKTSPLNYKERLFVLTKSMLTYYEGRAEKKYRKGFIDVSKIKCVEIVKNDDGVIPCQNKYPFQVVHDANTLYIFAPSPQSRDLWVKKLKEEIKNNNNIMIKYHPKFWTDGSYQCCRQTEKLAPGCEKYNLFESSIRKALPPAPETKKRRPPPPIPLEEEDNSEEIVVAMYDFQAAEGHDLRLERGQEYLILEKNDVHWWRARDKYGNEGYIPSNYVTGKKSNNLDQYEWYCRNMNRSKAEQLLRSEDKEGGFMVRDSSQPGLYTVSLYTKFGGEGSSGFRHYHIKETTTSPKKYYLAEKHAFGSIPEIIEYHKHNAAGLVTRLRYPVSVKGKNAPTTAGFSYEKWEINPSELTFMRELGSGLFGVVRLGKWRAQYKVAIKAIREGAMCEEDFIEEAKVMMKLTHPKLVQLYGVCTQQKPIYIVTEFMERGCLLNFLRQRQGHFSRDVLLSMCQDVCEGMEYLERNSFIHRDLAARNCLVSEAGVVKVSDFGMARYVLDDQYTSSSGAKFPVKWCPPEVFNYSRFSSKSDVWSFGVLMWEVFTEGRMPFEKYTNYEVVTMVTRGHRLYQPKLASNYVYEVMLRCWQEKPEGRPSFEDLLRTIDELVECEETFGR
T8 sequence (P16591 whole entry): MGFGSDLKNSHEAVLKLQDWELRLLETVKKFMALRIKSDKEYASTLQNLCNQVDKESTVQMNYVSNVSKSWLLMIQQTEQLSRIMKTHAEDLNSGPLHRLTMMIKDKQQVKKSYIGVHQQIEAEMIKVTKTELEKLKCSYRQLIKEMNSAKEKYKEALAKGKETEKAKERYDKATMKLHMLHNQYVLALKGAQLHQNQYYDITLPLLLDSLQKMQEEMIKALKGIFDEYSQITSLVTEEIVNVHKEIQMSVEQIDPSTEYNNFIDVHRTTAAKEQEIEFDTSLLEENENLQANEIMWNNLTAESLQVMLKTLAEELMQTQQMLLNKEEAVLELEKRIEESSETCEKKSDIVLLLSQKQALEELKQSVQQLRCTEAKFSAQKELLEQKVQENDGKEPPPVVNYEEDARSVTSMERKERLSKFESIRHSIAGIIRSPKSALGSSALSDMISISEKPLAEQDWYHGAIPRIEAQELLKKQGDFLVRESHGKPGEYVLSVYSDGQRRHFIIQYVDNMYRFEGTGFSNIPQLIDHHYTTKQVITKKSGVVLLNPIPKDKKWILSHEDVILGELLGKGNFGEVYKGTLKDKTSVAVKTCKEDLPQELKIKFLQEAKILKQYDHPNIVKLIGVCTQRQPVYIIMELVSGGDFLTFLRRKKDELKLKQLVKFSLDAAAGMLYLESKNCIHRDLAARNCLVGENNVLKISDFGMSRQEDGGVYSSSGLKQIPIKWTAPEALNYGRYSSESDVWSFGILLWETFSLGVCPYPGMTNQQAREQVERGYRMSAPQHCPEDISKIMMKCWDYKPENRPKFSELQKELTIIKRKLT
T40 sequence (Q9Y6M4 whole entry): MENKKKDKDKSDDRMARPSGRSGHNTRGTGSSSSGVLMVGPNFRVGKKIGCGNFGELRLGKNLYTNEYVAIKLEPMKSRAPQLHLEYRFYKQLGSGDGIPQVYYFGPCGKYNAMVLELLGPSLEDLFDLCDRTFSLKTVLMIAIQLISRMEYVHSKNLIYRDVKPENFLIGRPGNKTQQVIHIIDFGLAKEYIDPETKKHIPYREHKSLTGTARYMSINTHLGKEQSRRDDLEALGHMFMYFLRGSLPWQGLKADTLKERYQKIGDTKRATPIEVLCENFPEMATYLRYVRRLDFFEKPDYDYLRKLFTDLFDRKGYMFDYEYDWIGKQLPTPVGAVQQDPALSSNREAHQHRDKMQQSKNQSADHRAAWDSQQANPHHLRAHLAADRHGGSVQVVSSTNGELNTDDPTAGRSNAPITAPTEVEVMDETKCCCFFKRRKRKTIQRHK
T13 sequence (Q02156 whole entry): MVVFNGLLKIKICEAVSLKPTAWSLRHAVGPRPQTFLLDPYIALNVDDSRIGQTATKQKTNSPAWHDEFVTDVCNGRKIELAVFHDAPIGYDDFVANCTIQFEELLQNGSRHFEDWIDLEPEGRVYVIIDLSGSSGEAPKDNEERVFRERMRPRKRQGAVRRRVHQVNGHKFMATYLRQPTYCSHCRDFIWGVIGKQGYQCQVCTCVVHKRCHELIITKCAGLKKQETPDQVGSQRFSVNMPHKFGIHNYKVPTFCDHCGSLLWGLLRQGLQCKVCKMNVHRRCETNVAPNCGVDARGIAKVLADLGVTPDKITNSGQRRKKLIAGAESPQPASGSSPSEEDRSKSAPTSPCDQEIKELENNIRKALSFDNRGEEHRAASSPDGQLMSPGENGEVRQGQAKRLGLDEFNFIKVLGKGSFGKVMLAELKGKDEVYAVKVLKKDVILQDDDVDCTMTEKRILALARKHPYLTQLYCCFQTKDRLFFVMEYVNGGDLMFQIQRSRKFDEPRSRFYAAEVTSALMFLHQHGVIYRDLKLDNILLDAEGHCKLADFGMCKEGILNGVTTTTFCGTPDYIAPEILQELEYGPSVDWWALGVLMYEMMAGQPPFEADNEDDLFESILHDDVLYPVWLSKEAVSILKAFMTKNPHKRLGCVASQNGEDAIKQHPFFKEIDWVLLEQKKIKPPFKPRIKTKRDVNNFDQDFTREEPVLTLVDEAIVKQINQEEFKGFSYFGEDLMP
T37 sequence (P10721 26-976 D816V): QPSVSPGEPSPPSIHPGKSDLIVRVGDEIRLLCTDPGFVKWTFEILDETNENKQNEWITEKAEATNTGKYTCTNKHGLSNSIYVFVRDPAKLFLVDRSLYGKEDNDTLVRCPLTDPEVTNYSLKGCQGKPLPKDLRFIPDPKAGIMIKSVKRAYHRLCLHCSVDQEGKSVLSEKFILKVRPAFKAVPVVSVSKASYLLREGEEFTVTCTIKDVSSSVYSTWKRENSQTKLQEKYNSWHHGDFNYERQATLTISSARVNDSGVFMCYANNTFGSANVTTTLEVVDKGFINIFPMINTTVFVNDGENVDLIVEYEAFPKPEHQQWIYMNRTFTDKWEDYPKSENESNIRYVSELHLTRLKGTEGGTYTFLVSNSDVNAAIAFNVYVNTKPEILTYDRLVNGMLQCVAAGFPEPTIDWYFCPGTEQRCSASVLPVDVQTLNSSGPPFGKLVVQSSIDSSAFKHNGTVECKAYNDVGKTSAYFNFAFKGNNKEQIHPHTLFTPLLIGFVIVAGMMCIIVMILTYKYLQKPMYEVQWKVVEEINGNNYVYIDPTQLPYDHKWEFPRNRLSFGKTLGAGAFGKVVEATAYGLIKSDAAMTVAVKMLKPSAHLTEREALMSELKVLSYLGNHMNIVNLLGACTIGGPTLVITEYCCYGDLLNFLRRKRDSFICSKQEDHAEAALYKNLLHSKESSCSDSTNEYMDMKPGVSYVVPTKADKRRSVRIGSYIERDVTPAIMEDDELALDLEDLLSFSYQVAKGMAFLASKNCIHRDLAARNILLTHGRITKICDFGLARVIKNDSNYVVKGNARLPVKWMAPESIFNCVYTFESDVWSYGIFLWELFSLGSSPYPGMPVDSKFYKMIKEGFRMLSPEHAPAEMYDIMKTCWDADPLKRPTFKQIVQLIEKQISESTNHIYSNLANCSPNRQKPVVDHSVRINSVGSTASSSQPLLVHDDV
T36 sequence (Q9UF33 23-1036): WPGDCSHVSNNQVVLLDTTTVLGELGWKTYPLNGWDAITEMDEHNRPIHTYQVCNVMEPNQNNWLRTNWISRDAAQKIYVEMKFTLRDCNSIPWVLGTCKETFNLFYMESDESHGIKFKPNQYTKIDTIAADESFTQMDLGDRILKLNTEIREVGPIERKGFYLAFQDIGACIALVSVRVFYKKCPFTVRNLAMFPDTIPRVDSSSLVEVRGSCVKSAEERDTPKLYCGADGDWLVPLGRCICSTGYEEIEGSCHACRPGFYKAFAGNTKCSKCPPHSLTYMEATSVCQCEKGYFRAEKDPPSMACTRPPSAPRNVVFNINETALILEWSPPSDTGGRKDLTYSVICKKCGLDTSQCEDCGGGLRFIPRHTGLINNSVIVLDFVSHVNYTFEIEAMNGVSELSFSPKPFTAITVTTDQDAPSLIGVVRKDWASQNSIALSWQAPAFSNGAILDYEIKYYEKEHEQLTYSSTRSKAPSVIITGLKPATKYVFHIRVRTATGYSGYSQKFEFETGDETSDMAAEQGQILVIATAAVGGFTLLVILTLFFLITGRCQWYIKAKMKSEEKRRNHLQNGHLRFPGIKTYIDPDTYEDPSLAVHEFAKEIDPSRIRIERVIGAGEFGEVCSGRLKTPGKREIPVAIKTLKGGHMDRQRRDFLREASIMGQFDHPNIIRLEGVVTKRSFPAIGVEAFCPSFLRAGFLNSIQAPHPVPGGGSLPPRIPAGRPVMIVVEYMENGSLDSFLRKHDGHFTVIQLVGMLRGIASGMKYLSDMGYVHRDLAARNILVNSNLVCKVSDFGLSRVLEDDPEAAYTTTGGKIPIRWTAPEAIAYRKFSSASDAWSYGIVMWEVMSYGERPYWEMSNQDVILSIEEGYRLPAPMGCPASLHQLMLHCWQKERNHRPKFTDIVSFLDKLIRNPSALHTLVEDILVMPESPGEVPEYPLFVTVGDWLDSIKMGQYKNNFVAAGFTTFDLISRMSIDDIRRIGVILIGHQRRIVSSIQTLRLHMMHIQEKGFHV

With CN1CCN(C2CCC(n3cc(-c4ccc(Oc5ccccc5)cc4)c4c(N)ncnc43)CC2)CC1 (stereo not shown) [A-419259] the “% Control” value [1] was 1.6%, the “% Control” value [2] was 100% and the “% Control” value [3] was 39%. The “% Control” value [4] was 0.25%, the “% Control” value [5] was 100% and the “% Control” value [6] was 0.2%. For the same compound, the “% Control” value [7] was 100%, the “% Control” value [8] was 100% and the “% Control” value [9] was 89%. The “% Control” value [10] was 21%, the “% Control” value [11] was 27% and the “% Control” value [12] was 9%. The “% Control” value [13] was 88%, the “% Control” value [14] was 65% and the “% Control” value [15] was 36%. For the same compound, the “% Control” value [16] was 94%, the “% Control” value [17] was 98% and the “% Control” value [18] was 98%. For the same compound, the “% Control” value [19] was 100%, the “% Control” value [20] was 26% and the “% Control” value [21] was 90%. The “% Control” value [22] was 41%, the “% Control” value [23] was 0.65% and the “% Control” value [24] was 100%. For the same compound, the “% Control” value [25] was 100%, the “% Control” value [26] was 100% and the “% Control” value [27] was 100%. The “% Control” value [28] was 30%, the “% Control” value [29] was 88% and the “% Control” value [30] was 100%. For the same compound, the “% Control” value [31] was 100%, the “% Control” value [32] was 1.1% and the “% Control” value [33] was 63%. The “% Control” value [34] was 100%, the “% Control” value [35] was 8.4% and the “% Control” value [36] was 94%. For the same compound, the “% Control” value [37] was 70%, the “% Control” value [38] was 54% and the “% Control” value [39] was 18%. For the same compound, the “% Control” value [40] was 100%.
